≈ marks a conversion by molar mass, not a printed value. Each block holds one compound with its values, some of them ahead of it.
How the values were obtained:
[1] = test system: Candida spp.; experiment: Disk diffusion method, 18 Candida spp. strains (distribution); assay type: cell-based
Experimental: (§1) A total of eighteen strains belonging to Candida spp. (15 C. albicans, 2 C. glabrata and 1 C. lusitaniae) derived from a collection of vaginal strains isolated in CHROMAgar Candida (BD Italia SpA, Milan, Italy) were grown on Potato Dextrose Agar (Oxoid Thermofisher SpA, Milan, Italy) at 35° C. for 24 hours.
(§2) Colonies were re-suspended in sterile saline at a density corresponding to #0.5 McFarland (opacity standard). #0.5 McF correspond to 1.4×10^6 colony forming units (CFU)/ml for C. albicans, 4.3×10^6 CFU/ml for C. glabrata and 3×10^6 CFU/ml for C. lusitaniae [Guinea J. et al., Rapid antifungal susceptibility determination for yeast isolates by use of Etest performed directly on blood samples from patients with fungemia, J Clin Microbiol. 2010 June, 48(6): 2205-12]. Then, the sensitivity test vs the two oils has been performed. The disk diffusion method was carried out as follows: for each tested strain, 4 plates of Potato Dextrose Agar (PDA) were seeded in 3 directions to produce a confluent growth, by sterile swab soaked in the cell suspension. Sorbent paper disks (Oxoid Thermofisher SpA, Milan, Italy) 6.0 mm diameter were placed on the agar surface and added with 10 μl of each essential oil. Disks soaked with 10 μg amphotericin B were used as positive control. Also disks of chlortrimazole (from 10 μg to 40 μg) were used, but the inhibition rings could not be clearly read due to the formation of a re-growth ring. Disks soaked with 10 μl pure dimethylsulphoxide (DMSO, Sigma-Aldrich, St. Louis, MO, USA) were used as negative control. The plates were incubated at 35° C. for 24 hours. All the experiments were carried out in duplicate. The inhibiting effect of the oils were considered to be effective when the inhibition ring was equal or greater than that caused by amphotericin B. For amphotericin B, an inhibition zone (IZ)≥15 mm was considered as “sensitivity”, from 10 to 14 mm as “intermediate sensitivity” and <10 mm as “resistance” [Kauser et al., Agreement of Direct Antifungal Susceptibility Testing from Positive Blood Culture Bottles with Conventional Method for Candida Species, J Clin Microbiol. 2016 February, 54(2):343-34].

[2] = test system: C. albicans; experiment: Disk diffusion method, C. albicans strains; assay type: cell-based
Experimental: as §1, §2

[3] = test system: C. glabrata; experiment: Disk diffusion method, C. glabrata strains; assay type: cell-based
Experimental: as §1, §2

[4] = test system: C. albicans; experiment: Microdilution method MIC/MFC, C. albicans strains; assay type: cell-based
Experimental: as §1
(§3) The antifungal activity of amphotericin B and of cinnamaldheyde and eugenol were tested with the microdilution method as reported by Bona et al. [Bona et al., Sensitivity of Candida albicans to essential oils: are they an alternative to antifungal agents? J Appl Microbiol. 2016 December, 121(6): 1530-1545] with small changes. All the 18 Candida spp strains were tested. For each isolated, the colonies deriving from cultures (24 hours) in PDA were diluted in saline up to a concentration of 2×10^3 CFU/ml (so obtaining a final concentration of 10 3CGU/ml). Cinnamaldehyde and eugenol were dissolved in DMSO (80% oil, 20% DMSO), then diluted in Sabouraud broth up to a concentration of 8% v/v (so obtaining a final concentration of 4% v/v). Then, in a 96-well microtiter plate ½ serial dilution of amphotericin B (range 32-0.032 μg/ml, for a final range of 16-0.016 μg/ml) and of the essential oils (range 8-0.004% v/v, for a final range of 4-0.002% v/v) were carried out. Each well was then injected with 100 μl of cell suspension. The negative control contained DMSO diluted in Sabouraud broth (at 2% v/v, for a final concentration of 1% v/v). […] Each experiment was carried out in duplicate. The Minimum Inhibitory Concentration (MIC) was determined as the concentration of the oils in the first well which is not cloudy. The Minimum Fungicidal Concentration (MFC) was determined as the lowest concentration of the oils, with the agar culture showing the complete absence of fungal growth. The determination of the amphotericin B MIC was carried out also according to the EUCAST guidelines (cutoff 1 μg/ml) [https://eucast.org/astoffungi/clinicalbreakpointsforantifungals], all the results being consistent.

[5] = test system: C. lusitaniae; experiment: Microdilution method MIC/MFC, C. lusitaniae strain; assay type: cell-based; details: C. lusitaniae 1
Experimental: as §1, §3

[6] = test system: C. glabrata; experiment: Microdilution method MIC/MFC, C. glabrata strains; assay type: cell-based
Experimental: as §1, §3

[7] = test system: Candida spp.; experiment: Microdilution method MIC/MFC, 18 Candida spp. strains (distribution); assay type: cell-based; details: 18 strains
Experimental: as §1, §3

[8] = test system: C. lusitaniae; experiment: Disk diffusion method, C. lusitaniae strain; assay type: cell-based; details: C. lusitaniae 1
Experimental: as §1
Colonies were re-suspended in sterile saline at a density corresponding to #0.5 McFarland (opacity standard). #0.5 McF correspond to 1.4×10^6 colony forming units (CFU)/ml for C. albicans, 4.3×10^6 CFU/ml for C. glabrata and 3×10^6 CFU/ml for C. lusitaniae [Guinea J. et al., Rapid antifungal susceptibility determination for yeast isolates by use of Etest performed directly on blood samples from patients with fungemia, J Clin Microbiol. 2010 June, 48(6): 2205-12]. Then, the sensitivity test vs the two oils has been performed. The disk diffusion method was carried out as follows: for each tested strain, 4 plates of Potato Dextrose Agar (PDA) were seeded in 3 directions to produce a confluent growth, by sterile swab soaked in the cell suspension. Sorbent paper disks (Oxoid Thermofisher SpA, Milan, Italy) 6.0 mm diameter were placed on the agar surface and added with 10 μl of each essential oil. Disks soaked with 10 μg amphotericin B were used as positive control. Also disks of chlortrimazole (from 10 μg to 40 μg) were used, but the inhibition rings could not be clearly read due to the formation of a re-growth ring. Disks soaked with 10 μl pure dimethylsulphoxide (DMSO, Sigma-Aldrich, St. Louis, MO, USA) were used as negative control. The plates were incubated at 35° C. for 24 hours. All the experiments were carried out in duplicate. […]

[9] = Additional essential oils in combination with cinnamaldehyde or eugenol; details: antimycotic activity
[10] = 18 strains, disk 10 μl oil or 10 μg amphotericin B, 35° C. 24 hours

MIC ([4]; C. albicans 1): 0.032 µg/mL (≈ 0.0346 µM)
MIC ([4]; C. albicans 2): 0.032 µg/mL (≈ 0.0346 µM)
MIC ([4]; C. albicans 3): 0.032 µg/mL (≈ 0.0346 µM)
MIC ([4]; C. albicans 4): 0.032 µg/mL (≈ 0.0346 µM)
MIC ([4]; C. albicans 5): 0.016 µg/mL (≈ 0.0173 µM)
MIC ([4]; C. albicans 6): 0.032 µg/mL (≈ 0.0346 µM)
MIC ([4]; C. albicans 7): 0.032 µg/mL (≈ 0.0346 µM)
MIC ([4]; C. albicans 8): 0.016 µg/mL (≈ 0.0173 µM)
MIC ([4]; C. albicans 9): 0.125 µg/mL (≈ 0.135 µM)
MIC ([4]; C. albicans 10): 0.032 µg/mL (≈ 0.0346 µM)
MIC ([4]; C. albicans 11): 0.125 µg/mL (≈ 0.135 µM)
MIC ([4]; C. albicans 12): ≤0.016 µg/mL
MIC ([4]; C. albicans 13): 0.064 µg/mL (≈ 0.0693 µM)
MIC ([4]; C. albicans 14): 0.032 µg/mL (≈ 0.0346 µM)
MIC ([4]; C. albicans 15): 0.032 µg/mL (≈ 0.0346 µM)
MIC [5]: 0.125 µg/mL (≈ 0.135 µM)
MIC ([6]; C. glabrata 1): 0.032 µg/mL (≈ 0.0346 µM)
MIC ([6]; C. glabrata 2): 0.125 µg/mL (≈ 0.135 µM)
MIC average [7]: 0.052 µg/mL (≈ 0.0563 µM)
SMILES: C[C@@H]1[C@H](O)[C@@H](C)/C=C/C=C/C=C/C=C/C=C/C=C/C=C/[C@H](O[C@@H]2O[C@H](C)[C@@H](O)[C@H](N)[C@@H]2O)C[C@@H]2O[C@](O)(C[C@@H](O)C[C@@H](O)[C@H](O)CC[C@@H](O)C[C@@H](O)CC(=O)O[C@H]1C)C[C@H](O)[C@H]2C(=O)O [Amphotericin B, amphotericin B, reference compound]
inhibition rings diameter, average (including 6.0 mm of the disk) [1, 10]: 15.4 mm
inhibition rings diameter, range (including 6.0 mm of the disk) [1, 10]: 10-20.5 mm
category of the inhibition rings ([1]; all 18 strains, confirmed by microdilution): “sensitivity” or “intermediate sensitivity”
Diameters of the inhibition rings (including 6.0 mm of the disk) ([2]; C. albicans 1): 13.0 mm
Diameters of the inhibition rings (including 6.0 mm of the disk) ([2]; C. albicans 2): 15.5 mm
Diameters of the inhibition rings (including 6.0 mm of the disk) ([2]; C. albicans 3): 16.0 mm
Diameters of the inhibition rings (including 6.0 mm of the disk) ([2]; C. albicans 4): 19.5 mm
Diameters of the inhibition rings (including 6.0 mm of the disk) ([2]; C. albicans 5): 16.0 mm
Diameters of the inhibition rings (including 6.0 mm of the disk) ([2]; C. albicans 6): 16.0 mm
Diameters of the inhibition rings (including 6.0 mm of the disk) ([2]; C. albicans 7): 16.0 mm
Diameters of the inhibition rings (including 6.0 mm of the disk) ([2]; C. albicans 8): 20.5 mm
Diameters of the inhibition rings (including 6.0 mm of the disk) ([2]; C. albicans 9): 12.0 mm
Diameters of the inhibition rings (including 6.0 mm of the disk) ([2]; C. albicans 10): 15.0 mm
Diameters of the inhibition rings (including 6.0 mm of the disk) ([2]; C. albicans 11): 14.5 mm
Diameters of the inhibition rings (including 6.0 mm of the disk) ([2]; C. albicans 12): 16.5 mm
Diameters of the inhibition rings (including 6.0 mm of the disk) ([2]; C. albicans 13): 16.0 mm
Diameters of the inhibition rings (including 6.0 mm of the disk) ([2]; C. albicans 14): 19.0 mm
Diameters of the inhibition rings (including 6.0 mm of the disk) ([2]; C. albicans 15): 15.5 mm
Diameters of the inhibition rings (including 6.0 mm of the disk) ([3]; C. glabrata 1): 15.0 mm
Diameters of the inhibition rings (including 6.0 mm of the disk) ([3]; C. glabrata 2): 11.0 mm
MFC ([4]; C. albicans 1): 0.064 µg/mL (≈ 0.0693 µM)
MFC ([4]; C. albicans 2): 0.064 µg/mL (≈ 0.0693 µM)
MFC ([4]; C. albicans 3): 0.064 µg/mL (≈ 0.0693 µM)
MFC ([4]; C. albicans 4): 0.125 µg/mL (≈ 0.135 µM)
MFC ([4]; C. albicans 5): 0.250 µg/mL (≈ 0.271 µM)
MFC ([4]; C. albicans 6): 0.064 µg/mL (≈ 0.0693 µM)
MFC ([4]; C. albicans 7): 0.064 µg/mL (≈ 0.0693 µM)
MFC ([4]; C. albicans 8): 0.032 µg/mL (≈ 0.0346 µM)
MFC ([4]; C. albicans 9): 0.250 µg/mL (≈ 0.271 µM)
MFC ([4]; C. albicans 10): 0.032 µg/mL (≈ 0.0346 µM)
MFC ([4]; C. albicans 11): 0.250 µg/mL (≈ 0.271 µM)
MFC ([4]; C. albicans 12): 0.016 µg/mL (≈ 0.0173 µM)
MFC ([4]; C. albicans 13): 0.125 µg/mL (≈ 0.135 µM)
MFC ([4]; C. albicans 14): 0.125 µg/mL (≈ 0.135 µM)
MFC ([4]; C. albicans 15): 0.064 µg/mL (≈ 0.0693 µM)
MFC [5]: 0.250 µg/mL (≈ 0.271 µM)
MFC ([6]; C. glabrata 1): 0.064 µg/mL (≈ 0.0693 µM)
MFC ([6]; C. glabrata 2): 0.125 µg/mL (≈ 0.135 µM)
MFC average [7]: 0.11 µg/mL (≈ 0.119 µM)
Diameters of the inhibition rings (including 6.0 mm of the disk) [8]: 10.0 mm

SMILES: CC1=CCC2CC1C2(C)C (stereo not drawn) [α-pinene]
advantage when administered in combination with cinnamaldehyde or eugenol [9]: did not show any advantage
